Results from article PMC5218480 (PLoS ONE, 2017).

Tested on: MV-4-11 cells
Experiment: Gene expression microarray analysis (Affymetrix PrimeView) and GSEA
Type: cell-based, human
Set-up: RFU PODN (11730768_x_at) / Fold change /veh PODN (11730768_x_at) / RFU LINC00158 (11744669_a_at) / Fold change /veh LINC00158 (11744669_a_at) / RFU DUSP10 (11751237_a_at) / Fold change /veh DUSP10 (11751237_a_at) / RFU ID3 (11757404_x_at) / Fold change /veh ID3 (11757404_x_at) / RFU PLEKHG5 (11737974_s_at) / Fold change /veh PLEKHG5 (11737974_s_at) / RFU LRRC4B (11730491_at) / Fold change /veh LRRC4B (11730491_at) / RFU GIMAP4 (11747438_a_at) / Fold change /veh GIMAP4 (11747438_a_at) / RFU KRT8 (11758183_x_at) / Fold change /veh KRT8 (11758183_x_at) / RFU CNN1 (11734310_a_at) / Fold change /veh CNN1 (11734310_a_at) / RFU VPS37D (11726825_at) / Fold change /veh VPS37D (11726825_at) / RFU C10orf10 (11716522_x_at) / Fold change /veh C10orf10 (11716522_x_at) / RFU KIR2DL2 /// KIR2DL4 /// KIR2DL5A /// KIR2DL5B /// KIR2DS1 /// KIR2DS2 /// KIR2DS3 /// KIR2DS4 /// KIR3DL3 /// KIR3DL3 /// KIR3DS1 (11738374_at) / Fold change /veh KIR2DL2 /// KIR2DL4 /// KIR2DL5A /// KIR2DL5B /// KIR2DS1 /// KIR2DS2 /// KIR2DS3 /// KIR2DS4 /// KIR3DL3 /// KIR3DL3 /// KIR3DS1 (11738374_at) / RFU C1QL1 (11718748_at) / Fold change /veh C1QL1 (11718748_at) / RFU TMPRSS4 (11747572_a_at) / Fold change /veh TMPRSS4 (11747572_a_at) / RFU HAMP (11756126_x_at) / Fold change /veh HAMP (11756126_x_at) / RFU RNFT2 (11725882_a_at) / Fold change /veh RNFT2 (11725882_a_at) / RFU NR4A2 (11747474_a_at) / Fold change /veh NR4A2 (11747474_a_at) / RFU ABCC12 (11746883_a_at) / Fold change /veh ABCC12 (11746883_a_at) / RFU TMEM136 (11760407_x_at) / Fold change /veh TMEM136 (11760407_x_at) / RFU CLDN22 /// WWC2 (11732394_at) / Fold change /veh CLDN22 /// WWC2 (11732394_at) / RFU HLA-DPB1 (11760878_x_at) / Fold change /veh HLA-DPB1 (11760878_x_at) / RFU SPINT1 (11716480_a_at) / Fold change /veh SPINT1 (11716480_a_at) / RFU GAP43 (11754022_s_at) / Fold change /veh GAP43 (11754022_s_at) / RFU A4GNT (11735810_at) / Fold change /veh A4GNT (11735810_at) / RFU PRB3 (11715151_x_at) / Fold change /veh PRB3 (11715151_x_at) / RFU TUBB4B (11761932_at) / Fold change /veh TUBB4B (11761932_at) / RFU CAPN14 (11732068_a_at) / Fold change /veh CAPN14 (11732068_a_at) / RFU TMCC2 (11721928_a_at) / Fold change /veh TMCC2 (11721928_a_at) / RFU IRGQ (11745062_a_at) / Fold change /veh IRGQ (11745062_a_at) / RFU FAM174B (11720279_a_at) / Fold change /veh FAM174B (11720279_a_at) / RFU TMPRSS4 (11748680_a_at) / Fold change /veh TMPRSS4 (11748680_a_at) / RFU FAM212B (11763350_a_at) / Fold change /veh FAM212B (11763350_a_at) / RFU PLEKHG5 (11743358_a_at) / Fold change /veh PLEKHG5 (11743358_a_at) / RFU ZSCAN30 (11745921_a_at) / Fold change /veh ZSCAN30 (11745921_a_at) / RFU CMKLR1 (11741424_a_at) / Fold change /veh CMKLR1 (11741424_a_at) / RFU LOC101060620 /// MAPK8IP1 (11723275_at) / Fold change /veh LOC101060620 /// MAPK8IP1 (11723275_at) / RFU SPTSSB (11747773_x_at) / Fold change /veh SPTSSB (11747773_x_at) / RFU PRSS12 (11739890_at) / Fold change /veh PRSS12 (11739890_at) / RFU BIN1 (11741810_x_at) / Fold change /veh BIN1 (11741810_x_at) / RFU WNT11 (11732464_a_at) / Fold change /veh WNT11 (11732464_a_at) / RFU C10orf10 (11716521_a_at) / Fold change /veh C10orf10 (11716521_a_at) / RFU C5orf56 (11738089_at) / Fold change /veh C5orf56 (11738089_at) / RFU CYB561 (11721691_x_at) / Fold change /veh CYB561 (11721691_x_at) / RFU ANKRD19P (11752326_a_at) / Fold change /veh ANKRD19P (11752326_a_at) / RFU OR2T12 /// OR2T33 /// OR2T8 (11738714_s_at) / Fold change /veh OR2T12 /// OR2T33 /// OR2T8 (11738714_s_at) / RFU VCAN (11748164_a_at) / Fold change /veh VCAN (11748164_a_at) / RFU JSRP1 (11732532_at) / Fold change /veh JSRP1 (11732532_at) / RFU KRTAP10-11 (11738290_x_at) / Fold change /veh KRTAP10-11 (11738290_x_at) / RFU MYO3A (11730013_a_at) / Fold change /veh MYO3A (11730013_a_at) / RFU EBF3 (11725865_a_at) / Fold change /veh EBF3 (11725865_a_at) / RFU CAMK2N1 (11719241_x_at) / Fold change /veh CAMK2N1 (11719241_x_at) / RFU C5orf56 (11738088_a_at) / Fold change /veh C5orf56 (11738088_a_at) / RFU OLFML3 (11715873_a_at) / Fold change /veh OLFML3 (11715873_a_at) / RFU LOC100653217 /// NTM (11731650_a_at) / Fold change /veh LOC100653217 /// NTM (11731650_a_at) / RFU MAPK11 (11762145_a_at) / Fold change /veh MAPK11 (11762145_a_at) / RFU FIZ1 (11724087_x_at) / Fold change /veh FIZ1 (11724087_x_at) / RFU OASL (11726364_x_at) / Fold change /veh OASL (11726364_x_at) / RFU SOX15 (11748057_x_at) / Fold change /veh SOX15 (11748057_x_at) / RFU CD79A (11719716_a_at) / Fold change /veh CD79A (11719716_a_at) / RFU HIST1H1D (11736915_at) / Fold change /veh HIST1H1D (11736915_at) / RFU CASKIN2 (11723855_a_at) / Fold change /veh CASKIN2 (11723855_a_at) / RFU LOC730098 (11760151_x_at) / Fold change /veh LOC730098 (11760151_x_at) / RFU OR4N2 (11742367_at) / Fold change /veh OR4N2 (11742367_at) / RFU PRRT2 (11749266_a_at) / Fold change /veh PRRT2 (11749266_a_at) / RFU SNX32 (11753110_a_at) / Fold change /veh SNX32 (11753110_a_at) / RFU CDHR5 (11726645_a_at) / Fold change /veh CDHR5 (11726645_a_at) / RFU RCAN1 (11760418_a_at) / Fold change /veh RCAN1 (11760418_a_at) / RFU FAM167A (11723789_a_at) / Fold change /veh FAM167A (11723789_a_at) / RFU FAM26E (11764081_at) / Fold change /veh FAM26E (11764081_at) / RFU ISYNA1 (11749810_s_at) / Fold change /veh ISYNA1 (11749810_s_at) / RFU ACY1 (11761880_at) / Fold change /veh ACY1 (11761880_at) / RFU 11764098_at / Fold change /veh 11764098_at / RFU SAMD14 (11745864_x_at) / Fold change /veh SAMD14 (11745864_x_at) / RFU NPB (11741838_a_at) / Fold change /veh NPB (11741838_a_at) / RFU TMPRSS6 (11731388_a_at) / Fold change /veh TMPRSS6 (11731388_a_at) / RFU KRTAP10-2 (11738614_at) / Fold change /veh KRTAP10-2 (11738614_at) / RFU ARHGAP8 /// PRR5-ARHGAP8 (11727945_x_at) / Fold change /veh ARHGAP8 /// PRR5-ARHGAP8 (11727945_x_at) / RFU KRTAP5-7 /// NADSYN1 (11734609_at) / Fold change /veh KRTAP5-7 /// NADSYN1 (11734609_at) / RFU RASL12 (11751679_a_at) / Fold change /veh RASL12 (11751679_a_at) / RFU CDKN2B (11736163_a_at) / Fold change /veh CDKN2B (11736163_a_at) / RFU PRF1 (11729649_at) / Fold change /veh PRF1 (11729649_at) / RFU, ZNF638 /// ZNF638-IT1 / Fold change vs veh, ZNF638 /// ZNF638-IT1 / RFU, PANK3 / Fold change vs veh, PANK3 / RFU, SH3YL1 / Fold change vs veh, SH3YL1 / RFU, ZEB2 / Fold change vs veh, ZEB2 / RFU, NRIP1 / Fold change vs veh, NRIP1 / RFU, PTTG1IP / Fold change vs veh, PTTG1IP / RFU, CAPN2 / Fold change vs veh, CAPN2 / RFU, MED14 / Fold change vs veh, MED14 / RFU, SNORA58 / Fold change vs veh, SNORA58 / RFU, C1orf63 / Fold change vs veh, C1orf63 / RFU, LRRFIP1 / Fold change vs veh, LRRFIP1 / RFU, NDUFAF7 / Fold change vs veh, NDUFAF7 / RFU, SLC12A2 / Fold change vs veh, SLC12A2 / RFU, IBTK / Fold change vs veh, IBTK / RFU, ESF1 / Fold change vs veh, ESF1 / Fold change vs veh, TMEM50B / RFU, TAOK1 / Fold change vs veh, TAOK1 / RFU, ACBD3 / Fold change vs veh, ACBD3 / RFU, TMA16 / Fold change vs veh, TMA16 / RFU, RWDD3 / Fold change vs veh, RWDD3 / RFU, BCAT1 / Fold change vs veh, BCAT1 / RFU, EDEM3 / Fold change vs veh, EDEM3 / RFU, TMEM33 / Fold change vs veh, TMEM33 / RFU, WDR75 / Fold change vs veh, WDR75 / RFU, AHCTF1 / Fold change vs veh, AHCTF1 / RFU, TFRC / Fold change vs veh, TFRC / RFU, ZDHHC17 / Fold change vs veh, ZDHHC17 / RFU, NOM1 / Fold change vs veh, NOM1 / RFU, ARL8B / Fold change vs veh, ARL8B / RFU, ZBTB11 / Fold change vs veh, ZBTB11 / RFU, TAMM41 / Fold change vs veh, TAMM41 / RFU, KIAA1704 /// LOC100996395 / Fold change vs veh, KIAA1704 /// LOC100996395 / RFU, ING1 / Fold change vs veh, ING1 / RFU, TRMT61B / Fold change vs veh, TRMT61B / RFU, FUBP3 / Fold change vs veh, FUBP3 / RFU, TP53 / Fold change vs veh, TP53 / RFU, TNKS2 / Fold change vs veh, TNKS2 / RFU, ZFP14 / Fold change vs veh, ZFP14 / RFU, ACTR2 / Fold change vs veh, ACTR2 / RFU, PPP3R1 / Fold change vs veh, PPP3R1 / RFU, PIK3R1 / Fold change vs veh, PIK3R1 / RFU, HNRNPA1 / Fold change vs veh, HNRNPA1 / RFU, RNF170 / Fold change vs veh, RNF170 / RFU, ZNF28 / Fold change vs veh, ZNF28 / RFU, RNGTT / Fold change vs veh, RNGTT / RFU, OGT / Fold change vs veh, OGT / RFU, BRD1 / Fold change vs veh, BRD1 / RFU, MARS / Fold change vs veh, MARS / RFU, ZNF655 / Fold change vs veh, ZNF655 / RFU, FAHD1 / Fold change vs veh, FAHD1 / RFU, BDP1 / Fold change vs veh, BDP1 / RFU, LRRCC1 / Fold change vs veh, LRRCC1 / RFU, ARID1A / Fold change vs veh, ARID1A / RFU, ZNF146 / Fold change vs veh, ZNF146 / RFU, ZNF330 / Fold change vs veh, ZNF330 / RFU, GPN3 / Fold change vs veh, GPN3 / RFU, C9orf123 / Fold change vs veh, C9orf123 / RFU, N4BP2L2 / Fold change vs veh, N4BP2L2 / RFU, ARFIP1 / Fold change vs veh, ARFIP1 / RFU, FAM179B / Fold change vs veh, FAM179B / RFU, BCL10 / Fold change vs veh, BCL10 / RFU, UHRF1BP1L / Fold change vs veh, UHRF1BP1L / RFU, BET1 / Fold change vs veh, BET1 / RFU, CNOT2 / Fold change vs veh, CNOT2 / RFU, ZNF268 / Fold change vs veh, ZNF268 / Fold change vs veh, ZNF507 / RFU, DGCR2 / Fold change vs veh, DGCR2 / RFU, WDSUB1 / Fold change vs veh, WDSUB1 / Fold change vs veh, HSP90B1 /// MIR3652 / RFU, ADSS / Fold change vs veh, ADSS / RFU, GK / Fold change vs veh, GK / RFU, ZNF148 / Fold change vs veh, ZNF148 / RFU, TAF9 / Fold change vs veh, TAF9 / RFU, SLC1A5 / Fold change vs veh, SLC1A5 / RFU, SLMO2 / Fold change vs veh, SLMO2 / RFU, ABCC4 / Fold change vs veh, ABCC4 / RFU, LOC101060439 /// RAP1B / Fold change vs veh, LOC101060439 /// RAP1B / RFU, RFX7 / Fold change vs veh, RFX7 / RFU, GTPBP10 / Fold change vs veh, GTPBP10 / RFU, CNEP1R1 / Fold change vs veh, CNEP1R1 / RFU, BIVM-ERCC5 /// ERCC5 / Fold change vs veh, BIVM-ERCC5 /// ERCC5 / RFU, ILF3 / Fold change vs veh, ILF3 / RFU 11762660_at / Fold change /veh 11762660_at / RFU VCAN (11757783_s_at) / Fold change /veh VCAN (11757783_s_at) / RFU DDX43 (11728927_at) / Fold change /veh DDX43 (11728927_at) / RFU KRT8 (11758188_x_at) / Fold change /veh KRT8 (11758188_x_at) / RFU NKD1 (11759106_at) / Fold change /veh NKD1 (11759106_at) / RFU SRD5A1 (11742802_a_at) / Fold change /veh SRD5A1 (11742802_a_at) / RFU TPSAB1 /// TPSB2 (11721975_s_at) / Fold change /veh TPSAB1 /// TPSB2 (11721975_s_at) / RFU GSTM3 (11746129_a_at) / Fold change /veh GSTM3 (11746129_a_at) / RFU IL23R (11737362_x_at) / Fold change /veh IL23R (11737362_x_at) / RFU TMEM51 (11727254_a_at) / Fold change /veh TMEM51 (11727254_a_at) / RFU PIWIL2 (11732686_x_at) / Fold change /veh PIWIL2 (11732686_x_at) / RFU ORM1 (11744905_x_at) / Fold change /veh ORM1 (11744905_x_at) / RFU CCDC152 (11743942_at) / Fold change /veh CCDC152 (11743942_at) / RFU ECM1 (11717891_a_at) / Fold change /veh ECM1 (11717891_a_at) / RFU IL23R (11748794_a_at) / Fold change /veh IL23R (11748794_a_at) / RFU TNFAIP8L3 (11732012_x_at) / Fold change /veh TNFAIP8L3 (11732012_x_at) / RFU MBOAT4 (11741988_at) / Fold change /veh MBOAT4 (11741988_at) / RFU 11764193_at / Fold change /veh 11764193_at / RFU TMEM53 (11763286_at) / Fold change /veh TMEM53 (11763286_at) / RFU MAGEB2 (11727129_at) / Fold change /veh MAGEB2 (11727129_at) / RFU TMEM200A (11744735_a_at) / Fold change /veh TMEM200A (11744735_a_at) / RFU CCDC152 (11751479_a_at) / Fold change /veh CCDC152 (11751479_a_at) / RFU FAM211A (11726209_a_at) / Fold change /veh FAM211A (11726209_a_at) / RFU RGS16 (11746705_a_at) / Fold change /veh RGS16 (11746705_a_at) / RFU VCAN (11755009_s_at) / Fold change /veh VCAN (11755009_s_at) / RFU RHOB (11743442_s_at) / Fold change /veh RHOB (11743442_s_at) / RFU RGS16 (11720943_a_at) / Fold change /veh RGS16 (11720943_a_at) / RFU RGS16 (11720944_at) / Fold change /veh RGS16 (11720944_at) / RFU, VPS4B / Fold change vs veh, VPS4B / RFU, CREB1 / Fold change vs veh, CREB1 / RFU, DNAJC13 / Fold change vs veh, DNAJC13 / RFU, GNAQ / Fold change vs veh, GNAQ / RFU, CDK5R1 / Fold change vs veh, CDK5R1 / RFU, ZRANB3 / Fold change vs veh, ZRANB3 / RFU, CUL4A / Fold change vs veh, CUL4A / RFU, CCNY / Fold change vs veh, CCNY / RFU, UFL1 / Fold change vs veh, UFL1 / RFU, COG3 / Fold change vs veh, COG3 / RFU, DIAPH2 / Fold change vs veh, DIAPH2 / RFU, SKA2 / Fold change vs veh, SKA2 / RFU, AFF3 / Fold change vs veh, AFF3 / RFU, LMF1 / Fold change vs veh, LMF1 / RFU, IPO11 / Fold change vs veh, IPO11 / RFU, DFFB / Fold change vs veh, DFFB / RFU, FOXP1 / Fold change vs veh, FOXP1 / RFU, CARD8 / Fold change vs veh, CARD8 / RFU, STRN3 / Fold change vs veh, STRN3 / RFU, ADK / Fold change vs veh, ADK / RFU, RASSF2 / Fold change vs veh, RASSF2 / RFU, WIPF1 / Fold change vs veh, WIPF1 / RFU, LARP1B / Fold change vs veh, LARP1B / RFU, RASA1 / Fold change vs veh, RASA1 / RFU, RB1 / Fold change vs veh, RB1 / RFU, PPFIA1 / Fold change vs veh, PPFIA1 / RFU, MAT2A / Fold change vs veh, MAT2A / RFU, CCT5 / Fold change vs veh, CCT5 / RFU, WDR92 / Fold change vs veh, WDR92 / RFU, CUX1 / Fold change vs veh, CUX1 / RFU, TTC7A / Fold change vs veh, TTC7A / RFU, TMEM135 / Fold change vs veh, TMEM135 / RFU, DEPTOR / Fold change vs veh, DEPTOR / RFU, CPM / Fold change vs veh, CPM / RFU, DNAJB6 / Fold change vs veh, DNAJB6 / RFU, CACNA2D3 / Fold change vs veh, CACNA2D3 / RFU, DTX4 / Fold change vs veh, DTX4 / RFU, TFCP2 / Fold change vs veh, TFCP2 / RFU, GMCL1 /// GMCL1P1 / Fold change vs veh, GMCL1 /// GMCL1P1 / RFU, AEBP2 / Fold change vs veh, AEBP2 / RFU, SNHG1 /// SNORD22 /// SNORD25 /// SNORD26 /// SNORD27 /// SNORD28 /// SNORD29 /// SNORD31 / Fold change vs veh, SNHG1 /// SNORD22 /// SNORD25 /// SNORD26 /// SNORD27 /// SNORD28 /// SNORD29 /// SNORD31 / Fold change (Aza/veh), C12orf56 (ProbeSet 11735607_a_at) / Fold change (ACY-1035/veh), C12orf56 (ProbeSet 11735607_a_at) / Fold change (Aza/veh), FGFR1OP (ProbeSet 11751329_s_at) / Fold change (ACY-1035/veh), FGFR1OP (ProbeSet 11751329_s_at) / Fold change (Aza/veh), VPS36 (ProbeSet 11739960_a_at) / Fold change (ACY-1035/veh), VPS36 (ProbeSet 11739960_a_at) / RFU SYPL1 (11715823_x_at) / Fold change /veh SYPL1 (11715823_x_at) / RFU IGFBP7 (11715501_s_at) / Fold change /veh IGFBP7 (11715501_s_at) / RFU REEP3 (11722064_at) / Fold change /veh REEP3 (11722064_at) / RFU IGLL1 (11728026_x_at) / Fold change /veh IGLL1 (11728026_x_at): dose or concentration left out as unconfirmed
Settings: MV-4-11 cells, 48 hours

## Nc1ccc(-c2cccs2)cc1NC(=O)c1ccc2c(c1)cc(C1CC1)n2CCN1CCOCC1 [ACY-1035]
  Fold change /veh PLEKHG5 (11737974_s_at): 1.09
